Measured values as given in patent US20070172933A1, “Thermally stable amidases” (priority 2003, published 2007).
Where two headings read alike, the source gives them in different places.

What was measured:
amidase [1] = test: Substrate specificity of the isolated amidase (hydrolysis assay); assay type: biochemical, Pseudonocardia thermophila
Protocol: (§1) To carry out the hydrolysis assay, where not mentioned otherwise, use was made of a 5 mM benzamide solution in 500 μl of a 60 mM K-Na phosphate buffer, pH 7.2. The enzymatic reaction proceeded for one hour at 70° C. with addition of 5 μg of the enzyme. The reaction was stopped by cooling the reaction solution on ice. […] One unit (U) of amidase activity is defined as the amount of enzyme which catalyzes the formation of 1 μmol of benzoic acid per minute.
The substrate specificity of the amidase was tested at three different temperatures taking into account the substrate used in each case. For hydrolysis of amino acid amides, the reaction mixture was reacted for 3 h at 30° C., in the case of the aliphatic and cyclic amides 1 h at 50° C., and for aromatic amide substrates 1 h at 70° C. The enzymatic activity was then determined as described above. The control used was each batch without enzyme.

amidase [2] = test: Enantioselectivity of the isolated amidase, chiral HPLC; assay type: biochemical, Pseudonocardia thermophila; conditions: 70° C.
Protocol: For this, 10 μg of the purified amidase were incubated with a 5 mM racemic 2-phenylpropionamide solution for 3 h at 70° C., the end volume of the reaction batch being 500 μl. At 30-minute intervals, samples were taken from the reaction batch and analyzed by an HPLC measurement.
The product determination and quantification of the R-and S-stereoisomers of the 2-phenylpropionamide were determined by injecting defined amounts of the corresponding pure substances as standard. The enantiomeric excess (ee) was calculated on the basis of the peak area ratio obtained by the chirar HPLC measurement (ee^p=(S−R)/(S+R); ee^p (%)=(S−R)/(S+R) ×100; where p=product).
For the HPLC measurements, a chiral Chirobiotic T column (Astec, Whippany, USA) was used. The solvent used was ethanol and 20 mM potassium phosphate buffer, pH 7.2, having a volumetric ratio of 20:80. The elution was performed at room temperature using a flow rate of 0.8 ml min^−1. Detection was performed at a wavelength of 210 nm. The amfmonia concentration was studied using the phenol hypochloride method using the ammonia kit Spectroquant 114752 (Merck, Germany), the amount of ammonia released being determined spectrometrically using ammonium chloride as standard.

amidase [3] = test: Effect of metals and inhibitors (reagents and ions) on amidase activity, benzamide hydrolysis; assay type: biochemical, Pseudonocardia thermophila; conditions: for Amidase activity in %: reagent 1 mM, preincubated 1 h at 22° C., benzamide, 1 h at 70° C.
Protocol: as §1
To study the effect of certain reagents and ions on amidase activity, a solution containing 5 μg of amidase and the reagent or ion was preincubated for 1 h at 22° C. in 50 mM phosphate buffer. A 5 mM solution of benzamide in 50 mM phosphate buffer was then added until the end concentration of the reagent in the reaction batch was 1 mM. The reaction was performed for 1 h at 70° C. The catalytic activity was determined as described above.

[4] = assay type: physicochemical, Pseudonocardia thermophila; conditions: pH 7.2
Protocol: In addition, the temperature stability of the enzymes was studied between 50° C. and 80° C. over a relatively long period. […] (middle curve, FIG. 5).

[5] = Determination of the isoelectric point by isoelectric focusing; assay type: physicochemical, Pseudonocardia thermophila
Protocol: The isoelectric point was determined by means of isoelectric focusing using a Novex polyacrylamide gel (pH .3-10) and using a Novex electrophoresis chamber in accordance with the manufacturer's instructions (Novex, Invitrogen, Netherlands). The isoelectric point of the purified amidase was determined at pH 4.2.

[6] = Hydrolysis assay, specific activity of the purified amidase; assay type: biochemical, Pseudonocardia thermophila; conditions: benzamide as substrate, after purification
Protocol: To carry out the hydrolysis assay, where not mentioned otherwise, use was made of a 5 mM benzamide solution in 500 μl of a 60 mM K-Na phosphate buffer, pH 7.2. The enzymatic reaction proceeded for one hour at 70° C. with addition of 5 μg of the enzyme. The reaction was stopped by cooling the reaction solution on ice. The concentration of the products obtained enzymatically (benzoic acid and ammonia) was determined by means of HPLC and spectrometrically, using the ammonia kit Spectroquant 114752 (Merck, Germany). One unit (U) of amidase activity is defined as the amount of enzyme which catalyzes the formation of 1 μmol of benzoic acid per minute.

[7] = Aliphatic amides, 1 h at 50° C.
[8] = Amino acid amides, 3 h at 30° C.
[9] = Heterocycles, temperature for this group not stated clearly

## CC(O)C(N)=O (racemic) [DL-lactamide]
Amidase [1]; [7]
  Specific activity: 18.9 µmol/min/mg

## NC(=O)c1ccccc1N [2-aminobenzamide]
Amidase [1]; Aromatic amides, 1 h at 70° C.
  Specific activity: 3.4 µmol/min/mg

## CSCCC(O)C(N)=O (stereo not drawn) [2-hydroxy-4-(methylthio)butyramide]
Amidase [1]; [8]
  Specific activity: 5.7 µmol/min/mg

## CC(C(N)=O)c1ccccc1 (stereo not drawn) [2-phenylpropionamide]
Amidase [2]; 5 mM racemic substrate, after 60 minutes
  conversion: 50%
Amidase [2]; 5 mM racemic substrate, after 60 minutes, S-enantiomer product
  enantiomeric excess ee^p: greater than 95%
Amidase [2]; racemic substrate
  enantioselectivity of the purified amidase for the substrate: highly S-selective
Amidase [1]; Aromatic amides, 1 h at 70° C.
  Specific activity: 15.8 µmol/min/mg

## NC(=O)Cc1c[nH]c2ccccc12 [3-indolylacetamide]
Amidase [1]; Aromatic amides, 1 h at 70° C.
  Specific activity: 7.56 µmol/min/mg

## NC(=O)c1ccc(N)cc1 [4-aminobenzamide]
Amidase [1]; Aromatic amides, 1 h at 70° C.
  Specific activity: 6.5 µmol/min/mg

## [Ba+2] [Ba^2+]
Amidase [3]
  Amidase activity in %: 87%

## [Ca+2] [Ca^2+]
Amidase [3]
  Amidase activity in %: 85%

## [Co+2] [Co^2+]
Amidase [3]
  Amidase activity in %: 0%

## [Cu+2] [Cu^2+]
Amidase [3]
  Amidase activity in %: 26%

## O[C@@H](CS)[C@@H](O)CS [DTT]
Amidase [3]
  sensitivity of the amidases to the reagent (in words): increased
  Amidase activity in %: 120%

## O=C(O)CN(CCN(CC(=O)O)CC(=O)O)CC(=O)O [EDTA]
Amidase [3]
  sensitivity of the amidases to the reagent (in words): insensitive
  Amidase activity in %: 100%

## C[C@H](N)C(N)=O [L-alaninamide]
Amidase [1]; [8]
  Specific activity: 10.5 µmol/min/mg

## CC(C)C[C@H](N)C(N)=O [L-leucinamide]
Amidase [1]; [8]
  Specific activity: 10.8 µmol/min/mg

## CSCC[C@H](N)C(N)=O [L-methioninamide]
Amidase [1]; [8]
  Specific activity: 14.4 µmol/min/mg

## NC(=O)[C@@H]1CCCN1 [L-prolinamide]
Amidase [1]; [8]
  Specific activity: 13.0 µmol/min/mg

## CC(C)(C)[C@H](N)C(N)=O [L-tert-leucinamide]
Amidase [1]; [8]
  Specific activity: 0.08 µmol/min/mg

## NC(=O)[C@@H](N)Cc1c[nH]c2ccccc12 [L-tryptophanamide]
Amidase [1]; [8]
  Specific activity: 10.3 µmol/min/mg

## CC(C)[C@H](N)C(N)=O [L-valinamide]
Amidase [1]; [8]
  Specific activity: 13.0 µmol/min/mg

## [Mg+2] [Mg^2+]
Amidase [3]
  Amidase activity in %: 90%

## [Mn+2] [Mn^2+]
Amidase [3]
  Amidase activity in %: 98%

## [Ni+2] [Ni^2+]
Amidase [3]
  Amidase activity in %: 42%

## CCCCCCCCCCCCOS(=O)(=O)[O-].[Na+] [SDS]
Amidase [3]
  sensitivity of the amidases to the reagent (in words): insensitive
  Amidase activity in %: 100%

## [Zn+2] [Zn^2+]
Amidase [3]
  Amidase activity in %: 93%

## CC(N)=O [acetamide]
Amidase [1]; [7]
  Specific activity: 15.7 µmol/min/mg

## NC(=O)CCCCC(N)=O [adipamide]
Amidase [1]; [7]
  Specific activity: 12.0 µmol/min/mg

## NC(=O)c1ccccc1 [benzamide]
Amidase [1]; Aromatic amides, 1 h at 70° C.
  Specific activity: 19.4 µmol/min/mg

## NC=O [formamide]
Amidase [1]; [7]
  Specific activity: 9.2 µmol/min/mg

## CCCCCC(N)=O [hexanoamide]
Amidase [1]; [7]
  Specific activity: 9.3 µmol/min/mg

## NC(=O)CI [iodoacetamide]
Amidase [3]
  Amidase activity in %: 90%

## O=C(O)CI [iodoacetate]
Amidase [3]
  Amidase activity in %: 22%

## CC(C)C(N)=O [isobutyramide]
Amidase [1]; [7]
  Specific activity: 13.5 µmol/min/mg

## NC(=O)c1ccncc1 [isonicotinamide]
Amidase [1]; [9]
  Specific activity: 7.1 µmol/min/mg

## NC(=O)CC(N)=O [malonamide]
Amidase [1]; [7]
  Specific activity: 7.4 µmol/min/mg

## C=C(C)C(N)=O [methacrylamide]
Amidase [1]; [7]
  Specific activity: 23.5 µmol/min/mg

## NC(=O)c1cccnc1 [nicotinamide]
Amidase [1]; [9]
  Specific activity: 11.6 µmol/min/mg

## NC(=O)c1ccccc1O [o-hydroxybenzamide]
Amidase [1]; Aromatic amides, 1 h at 70° C.
  Specific activity: 7.4 µmol/min/mg

## CC(C)(C)C(N)=O [pivalamide]
Amidase [1]; [7]
  Specific activity: 14.9 µmol/min/mg

## CCC(N)=O [propionamide]
Amidase [1]; [7]
  Specific activity: 25.4 µmol/min/mg

## NC(=O)c1cnccn1 [pyrazinamide]
Amidase [1]; [9]
  Specific activity: 11.2 µmol/min/mg

## NC(=O)CCC(N)=O [succinamide]
Amidase [1]; [7]
  Specific activity: 4.0 µmol/min/mg

## NC(N)=O [urea]
Amidase [1]; [7]
  Specific activity: 17.5 µmol/min/mg

## Triton X-100
Amidase [3]
  sensitivity of the amidases to the reagent (in words): insensitive
  Amidase activity in %: 100%

## m-tolylamide
Amidase [1]
  Specific activity: 12.7 µmol/min/mg

## p-tolylamide
Amidase [1]; Aromatic amides, 1 h at 70° C.
  Specific activity: 13.1 µmol/min/mg

B1: amidase: thermally stable amidase purified from Pseudonocardia thermophila (DSMZ 43832); SEQ ID No. 1, 2, 3 (protein, listed as Pseudonocardia thermophila)
chain 1: IHMPDPDAV
chain 2: DGLPVGLMIVGKHF
chain 3: MIHMPDPDAVARMAAEGRFGIPVVVICRTYHDLGHRPARLVEQGRRAVRGGGPHPAAALVDPPRRRGRQARRVGGADLDHRNLGGAARRPHGRGQDNVAVAGVPMMNGSRTLEGFVPAEDATVVSRLLAAGATIAGKSVCEDLCFSGGSHTSKPGTVHNPWDMSRSAGGSSSGSGALVAAGEVDMAIGGDQGGSIRIPSAYCGTVGHKPTHGLVPYTGGFPIEQSIDHLGPITRTVADAALMLSVIAGRDGLDPRQPDVVEVQDYVGALAESVSGLRIGVLQEGFGHPNSEPEVDDTVRAAVGTLREAGFTVEDVSVPWHLHATAIWDVLATEGGLWQMVEGNAYGMHWKGHYDPSLIAYYGRKWREDPAQFSETVKLVALAGRYALTTQYGRHYAMARNLAPKLVAAYDAALSNYDVLVMPTLPMRATVLPGPDAPVEEILARGLEMLANTAPFDVTGHPACSVPAGLADGLPVGLMIVGKHFDDATVLKVANAFEQAVGGFPTPAAZ
Amidase [1]; Table 4, inventive amidase
  Substrate specificity (amides): Al, Ar, Cy, As
[4]
  enzymatic activity over time (thermal stability): decreases rapidly
[5]; Novex polyacrylamide gel
  isoelectric point: 4.2 pH
[5]; Table 4, inventive amidase
  IEF point pH: 4.2 pH
[6]
  Specific activity: 19.5 U/mg of protein
